From patent US20130109049A1, “Method of Establishing a Fungal Nail Infection” (NOVABIOTICS LIMITED, priority 2009, published 2013)
In brackets after ≈: the same amount, converted by molar mass. Values belong to the compound of their own block, whether it stands above or below them. Non-standard residues stand in square brackets, D forms with d. No end group written: not given here.

Legend:
[1] = test system: Candida; assay: Ex vivo human nail fragment model, treatment of Candida infection; assay type: cell-based
Description: Trichophyton rubrum strain NCPF0118 was obtained from the National Collection of Pathogenic Fungi, Bristol, UK. Clinical isolates of T. rubrum DM2006 1661, T. rubrum DM2006 1358, T. mentagrophytes DM2006 1503, T. mentagrophytes DM2006 1498 were isolated from patients suffering a range of tinea infections and were purchased from Professor Michel Monod (Service de Dermatologie, Université de Lausanne, Switzerland). Clinical isolates of Candida samples were also obtained from patients suffering from Candidal infection.
The procedure was carried out as described for Example 1 above with modifications to the vehicle, and fungal strains used. Each nail was inoculated with 10 μl of a spore suspension of Candida. Following inoculation the nails were treated with 10% (w/v) Novexatin® (NP213) in a vehicle solution of 50% (w/v) PEG 8000 plus 20% (w/v) urea; 10% (w/v) NP339 in a vehicle solution of 50% (w/v) PEG 8000 plus 20% (w/v) urea; 10% (w/v) NP339 in a vehicle solution of water; a control solution of 50% (w/v) PEG 8000 plus 20% (w/v) urea; a control solution of water; a solution of 16 μg/ml Itraconazole® and 1.6% (w/v) DMSO in a vehicle solution of water and a control solution of 1.6% (w/v) DMSO. As for Experiment 1 above, nail fragments were treated daily for up to 28 days. […]
At the end of the treatment period, the nail fragments were placed in sterile 2 ml microcentrifuge tubes containing 450 μl of a suspension broth consisting of Sabouraud's Liquid Medium, pH 5.6, containing approximately 100 mg of sterile zirconia beads (0.5 mm diameter). […] Colonies were counted on dishes that contained between 20 and 200 colonies in total, and the total number of cfu present in each sample was calculated. […] The counts were corrected for the surface area of the nails studied to give cfu/cm^2, transformed to log10 and means and standard errors of the mean were calculated using GraphPad Prism 4 (GraphPad, San Diego, Calif.). […] When very low numbers of colonies were detected, as in Experiment 3, the calculated cfu values are shown in order to indicate trends.

[2] = test system: T. rubrum NCPF0118; assay: In vitro MIC100 testing; assay type: cell-based, Trichophyton rubrum; conditions: Trichophyton rubrum; versus T. rubrum NCPF0118 in vitro; read-out: concentration equal to 100× the MIC100
[3] = test system: Trichophyton rubrum strain NCPF0118; assay: Ex vivo human nail fragment model, treatment of established infection (cfu recovered); assay type: cell-based; conditions: Experiment 5; fluconazole at approximately 100×MIC100; 14 d and 28 d, daily
Procedure: For antifungal efficacy studies with human toe nails, a solution of 50% (w/v) PEG 8000 (Sigma-Aldrich; Cat No P2139) was prepared by autoclaving and then diluting with sterile 50% (w/v) urea solution (Sigma-Aldrich; Cat No 51457). This solution was mixed thoroughly by vortexing and allowed to stabilise at 50° C. for up to 2 h. After stabilisation, the temperature was allowed to drop to below 40° C. and a concentrated, filter-sterilised solution of Novexatin® (NP213), dissolved in deionised water was added. Final concentrations of PEG 8000 of 50% (w/v), urea of 0-20% (w/v) and Novexatin® (NP213) of 0-10% (w/v) were used in the experiments described below.
On arrival, the cultures were transferred to a Petri dish containing sterile Sabouraud Dextrose agar (Sigma-Aldrich; Cat No 84088, or equivalent) and grown for up to 7 d at 30° C. The resulting growth was scraped off and re-suspended in Sabouraud's liquid medium (Oxoid; Cat No CM 147, or equivalent) containing […] dimethyl sulfoxide (DMSO) as cryoprotectant to create a culture stock. The fungus was stored in 0.5 ml aliquots in 2 ml screw-capped polypropylene vials (Cryovials) at −80° C. Seven days prior to experimental use, 50 μl of the culture stock was used to inoculate a slope of Potato Dextrose agar (Merck; Cat No VM556130 609, or equivalent), which was incubated at 30° C. for up to 7 d. The surface of the resulting growth was gently perturbed in 3 ml of sterile distilled/deionised water. After filtration through 2 layers of sterile surgical gauze to remove debris and larger clumps of biomass, the absorbance of the resultant spore suspension was measured at 530 nm, then adjusted to the 0.5 MacFarland standard (OD approx. 0.15)^2.
Human toe nails were obtained from a podiatrist in Aberdeen following a successful application to the Grampian Local Research Ethics Committee. […] Large toe nails were cut into 4 pieces, each approximately 1 cm^2 in area, using nail clippers. Nails of normal thickness (≦2 mm) were chosen. The 4 fragments cut from each single nail were placed in quadrants marked on Petri-dishes containing phosphate buffered saline rendered solid with 1.2% (w/v) Technical Agar No. 3 (Oxoid; Cat No LP0013, or equivalent), subsequently referred to as PBS agar. The nail fragments were of irregular shape, so to ensure that each nail received the appropriate amount of the treatment solutions, the surface area was measured by photographing the nails over graph paper and determining the number of 1mm^2 squares covered by each nail. The thickness of the nails was measured with a micrometer and nails distributed among treatment groups, to avoid nail thickness providing an additional experimental variable.
Twenty four nail fragments from 6 whole large toenails were each inoculated with 10 μl of a spore suspension of T. rubrum NCPF0118 which was prepared as described above. The inoculum was applied to the ventral side of the nail (i.e. the side next to the skin in situ). The nails were incubated for 7 d at 30° C. to allow the fungus to infect the nail tissue. After this pre-incubation period, 12 of the fragments were assigned to each of 2 different treatment protocols, involving daily treatment with 2 different vehicle solutions, each containing a control and 3 different concentrations of Novexatin® (NP213). These vehicle solutions were: 50% (w/v) PEG 8000, and 50% (w/v) PEG 8000 plus 20% (w/v) urea. The concentrations of Novexatin® (NP213) studied were 0%, 1%, 5% and 10% (w/v). The solutions were applied at a volume of 10 μl/cm^2, corrected for the surface area of the different nail fragments as described above. The applied solution was spread over the dorsal side of the nail, to mimic the intended clinical treatment and the ventral side of the nail rested on the agar surface. Each time the nails were treated, they were transferred to a new sterile Petri dish containing PBS agar to minimise any build-up of fungal growth on the agar. Nail fragments were treated daily for 28 days. […]

Compound: CN(C/C=C/C#CC(C)(C)C)Cc1cccc2ccccc12 [Terbinafine®, [(2E)-6,6-dimethylhept-2-en-4-yn-1-yl](methyl)(naphthalen-1-ylmethyl)amine, reference compound]
outcome of treatment ([1]; Experiment 7, 10 μg/ml, 14 d and 28 d): unsuccessful

MIC [2]: 360 µg/mL (≈ 1180 µM)
Compound: OC(Cn1cncn1)(Cn1cncn1)c1ccc(F)cc1F [fluconazole, 2-(2,4-difluorophenyl)-1,3-bis(1H-1,2,4-triazol-1-yl)propan-2-ol, reference compound]
outcome of treatment [3]: unsuccessful

Compound: dRdRdRdRdRdRdRdRdRdRdRdRdR ([dR][dR][dR][dR][dR][dR][dR][dR][dR][dR][dR][dR][dR]) [NP339]
recoverable fungal growth after treatment ([1]; Experiments 6 and 7, 10% (w/v), 14 d or 28 d, daily): no recoverable fungal growth
